Key:
[1] = Binding affinity to Influenza A virus (A/Hong Kong/1/1968(H3N2)) […] by biolayer interferometry analysis
[2] = Binding affinity to Influenza A virus (A/Puerto Rico/8/1934(H1N1)) PR8 hemagglutinin-1 by biolayer interferometry analysis
[3] = test system: Influenza A virus (A/Puerto Rico/8/1934(H1N1)); test: Binding affinity to Influenza A virus (A/Puerto Rico/8/1934(H1N1)) PR8 hemagglutinin-1 assessed as dissociation constant after 180 secs by biolayer interferometry analysis
[4] = test system: Influenza A virus (A/Puerto Rico/8/1934(H1N1)); test: Binding affinity to Influenza A virus (A/Puerto Rico/8/1934(H1N1)) PR8 hemagglutinin-1 assessed as association constant after 180 secs by biolayer interferometry analysis
[5] = test system: Influenza A virus (A/Hong Kong/1/1968(H3N2)); test: Binding affinity to Influenza A virus (A/Hong Kong/1/1968(H3N2)) […] assessed as dissociation constant after 180 secs by biolayer interferometry analysis
[6] = test system: Influenza A virus (A/Hong Kong/1/1968(H3N2)); test: Binding affinity to Influenza A virus (A/Hong Kong/1/1968(H3N2)) […] assessed as association constant after 180 secs by biolayer interferometry analysis
[7] = test system: Influenza A virus (A/Puerto Rico/8/1934(H1N1)); test: Potency index, ratio of Kd for Arbidol to Kd for test compound for binding affinity to Influenza A virus (A/Puerto Rico/8/1934(H1N1)) PR8 hemagglutinin-1 by biolayer interferometry analysis
[8] = test system: Influenza A virus (A/Hong Kong/1/1968(H3N2)); test: Potency index, ratio of Kd for Arbidol to Kd for test compound for binding affinity to Influenza A virus (A/Hong Kong/1/1968(H3N2)) […] by biolayer interferometry analysis

Row | Compound | Kd [2] | Kd ([1]; read-out: Kd) | Kd ([2]; read-out: Kd) | other results
1 | CCOC(=O)c1c(CSc2ccc3ccccc3c2)n(C)c2cc(Br)c(O)c(CN(C)C)c12 | Not Active | – | – | Kd [1]: Not Active
2 | CCOC(=O)c1c(CSc2ccccc2)n(C)c2cc(Br)c(O)c(CN(C)C)c12 [UMIFENOVIR] | – | 92 µM | 47 µM | K [3]: 4.8 ×10⁻² /s; K [4]: 1 ×10³ /M/s; K [5]: 2.8 ×10⁻² /s; K [6]: 2.3 ×10² /M/s
3 | CCOC(=O)c1c(CSc2ccccc2)n(C)c2cc(Br)c(O)c(CN3CCN(CCO)CC3)c12 | Not Active | 46 µM | – | –
4 | CCOC(=O)c1c(CSc2cccc(O)c2)n(C)c2cc(Br)c(O)c(CN(C)C)c12 | – | – | 0.48 to 0.55 µM | K [3]: 3.42 ×10⁻² /s; K [4]: 7.06 ×10⁴ /M/s; K [5]: 1.93 ×10⁻² /s; Ratio [7]: 98; Ratio [8]: 1150; K [6]: 2.41 ×10⁵ /M/s
5 | CCOC(=O)c1c(CSc2ccc3ccccc3c2)n(C)c2cc(Br)c(O)cc12 | – | 45 µM | 18 µM | –
6 | CCOC(=O)c1c(CSc2ccccc2)n(C)c2cc(Br)c(O)c(CN3CCN(C(=O)OC(C)(C)C)CC3)c12 | – | – | 41 µM | Kd [1]: Not Active
7 | CCOC(=O)c1c(CSc2cccc(N)c2)n(C)c2cc(Br)c(O)cc12 | Not Active | > 100 µM | – | –
8 | CCOC(=O)c1c(CSc2ccccc2)n(C)c2cc(Br)c(O)cc12 | – | 11 µM | 38 µM | –
9 | CCOC(=O)c1c(CSc2cccc(N)c2)n(C)c2cc(Br)c(O)c(CN(C)C)c12 | Not Active | 7.4 µM | – | –
10 | CCOC(=O)c1c(CSc2cccc(O)c2)n(C)c2cc(Br)c(O)cc12 | – | 17 µM | 75 µM | –

Reference: ChEMBL document CHEMBL4052750, “Structure-based optimization and synthesis of antiviral drug Arbidol analogues with significantly improved affinity to influenza hemagglutinin” (Bioorg Med Chem Lett, 2017)
